Source: patent publication US20020177180A1, “pH-indicator based assay for selective enzymes” (ThermoGen, Inc., priority 1998, published 2002)

Key:
Experiment in all cases: Initial screening of ThermoGen esterases toward esters 1-31 (pH indicator), specific activity
Type in all cases: biochemical
Settings in all cases: 1 mM substrate, pH 7.2, 7 vol % acetonitrile, 25° C.
esterase E011 = system: esterase E011
Method: (§1) Initial screening measures the initial rate of hydrolysis of different esters. The rate of reaction was measured by monitoring the release of protons using a pH indicator, 4-nitrophenol. In this assay, the yellow color of the phenoxide disappears as the reaction proceeds. The amount of ester hydrolyzed can be measured quantitatively, as is known in the art.

esterase E016 = system: esterase E016
Method: as §1
(§2) To survey the substrate selectivity of the ThermoGen esterases, the ability of the enzymes to hydrolyze thirty-one different commercially-available esters, Scheme 1 (FIG. 9, Table 6).

esterase E014 = system: esterase E014
Method: as §1, §2

esterase E012 = system: esterase E012
Method: as §1, §2

esterase E015 = system: esterase E015
Method: as §1, §2

esterase E020 = system: esterase E020
Method: as §1, §2

esterase E006 = system: esterase E006
Method: as §1, §2

CCCCOC(C)=O [Substrate 25]
Specific activity, esterase E011 (esterase E011): 0.5 mmol ester hydrolyzed/min/mg protein | Specific activity, esterase E016 (esterase E016): 13 mmol ester hydrolyzed/min/mg protein | Specific activity, esterase E014 (esterase E014): 0.21 mmol ester hydrolyzed/min/mg protein | Specific activity, esterase E012 (esterase E012): <2 mmol ester hydrolyzed/min/mg protein | Specific activity, esterase E015 (esterase E015): 1.0 mmol ester hydrolyzed/min/mg protein | Specific activity, esterase E020 (esterase E020): 2.0 mmol ester hydrolyzed/min/mg protein | Specific activity, esterase E006 (esterase E006): 0.54 mmol ester hydrolyzed/min/mg protein

CCCOC(C)=O [Substrate 24]
Specific activity, esterase E011 (esterase E011): 0.25 mmol ester hydrolyzed/min/mg protein | Specific activity, esterase E016 (esterase E016): <2 mmol ester hydrolyzed/min/mg protein | Specific activity, esterase E014 (esterase E014): <0.1 mmol ester hydrolyzed/min/mg protein | Specific activity, esterase E012 (esterase E012): 2.8 mmol ester hydrolyzed/min/mg protein | Specific activity, esterase E015 (esterase E015): 0.26 mmol ester hydrolyzed/min/mg protein | Specific activity, esterase E020 (esterase E020): 0.85 mmol ester hydrolyzed/min/mg protein | Specific activity, esterase E006 (esterase E006): 0.31 mmol ester hydrolyzed/min/mg protein

CCCC(=O)OCC(COC(=O)CCC)OC(=O)CCC [Substrate 29]
Specific activity, esterase E011 (esterase E011): 450 mmol ester hydrolyzed/min/mg protein | Specific activity, esterase E016 (esterase E016): 130 mmol ester hydrolyzed/min/mg protein | Specific activity, esterase E014 (esterase E014): 280 mmol ester hydrolyzed/min/mg protein | Specific activity, esterase E012 (esterase E012): 37 mmol ester hydrolyzed/min/mg protein | Specific activity, esterase E015 (esterase E015): 550 mmol ester hydrolyzed/min/mg protein | Specific activity, esterase E020 (esterase E020): 560 mmol ester hydrolyzed/min/mg protein | Specific activity, esterase E006 (esterase E006): 370 mmol ester hydrolyzed/min/mg protein

CCC(C)OC(C)=O (centres unmarked) [Substrate 28]
Specific activity, esterase E011 (esterase E011): 0.19 mmol ester hydrolyzed/min/mg protein | Specific activity, esterase E016 (esterase E016): <2 mmol ester hydrolyzed/min/mg protein | Specific activity, esterase E014 (esterase E014): <0.1 mmol ester hydrolyzed/min/mg protein | Specific activity, esterase E012 (esterase E012): <2 mmol ester hydrolyzed/min/mg protein | Specific activity, esterase E015 (esterase E015): 0.29 mmol ester hydrolyzed/min/mg protein | Specific activity, esterase E020 (esterase E020): 2.1 mmol ester hydrolyzed/min/mg protein | Specific activity, esterase E006 (esterase E006): 0.16 mmol ester hydrolyzed/min/mg protein

C=COC(=O)CCCCC [Substrate 4]
Specific activity, esterase E011 (esterase E011): 680 mmol ester hydrolyzed/min/mg protein | Specific activity, esterase E016 (esterase E016): 1300 mmol ester hydrolyzed/min/mg protein | Specific activity, esterase E014 (esterase E014): 540 mmol ester hydrolyzed/min/mg protein | Specific activity, esterase E012 (esterase E012): 48 mmol ester hydrolyzed/min/mg protein | Specific activity, esterase E015 (esterase E015): 1100 mmol ester hydrolyzed/min/mg protein | Specific activity, esterase E020 (esterase E020): 3000 mmol ester hydrolyzed/min/mg protein | Specific activity, esterase E006 (esterase E006): 1700 mmol ester hydrolyzed/min/mg protein

CCCCCCCC(=O)OCC [Substrate 15]
Specific activity, esterase E011 (esterase E011): 11 mmol ester hydrolyzed/min/mg protein | Specific activity, esterase E016 (esterase E016): 83 mmol ester hydrolyzed/min/mg protein | Specific activity, esterase E014 (esterase E014): 5.1 mmol ester hydrolyzed/min/mg protein | Specific activity, esterase E012 (esterase E012): 19 mmol ester hydrolyzed/min/mg protein | Specific activity, esterase E015 (esterase E015): 120 mmol ester hydrolyzed/min/mg protein | Specific activity, esterase E020 (esterase E020): 2.6 mmol ester hydrolyzed/min/mg protein | Specific activity, esterase E006 (esterase E006): 160 mmol ester hydrolyzed/min/mg protein

C=COC(=O)CCCCCCC [Substrate 5]
Specific activity, esterase E011 (esterase E011): 260 mmol ester hydrolyzed/min/mg protein | Specific activity, esterase E016 (esterase E016): 1200 mmol ester hydrolyzed/min/mg protein | Specific activity, esterase E014 (esterase E014): 8.0 mmol ester hydrolyzed/min/mg protein | Specific activity, esterase E012 (esterase E012): 50 mmol ester hydrolyzed/min/mg protein | Specific activity, esterase E015 (esterase E015): 320 mmol ester hydrolyzed/min/mg protein | Specific activity, esterase E020 (esterase E020): 1200 mmol ester hydrolyzed/min/mg protein | Specific activity, esterase E006 (esterase E006): 960 mmol ester hydrolyzed/min/mg protein

C=C(C)OC(C)=O [Substrate 27]
Specific activity, esterase E011 (esterase E011): 45 mmol ester hydrolyzed/min/mg protein | Specific activity, esterase E016 (esterase E016): 49 mmol ester hydrolyzed/min/mg protein | Specific activity, esterase E014 (esterase E014): 0.73 mmol ester hydrolyzed/min/mg protein | Specific activity, esterase E012 (esterase E012): 2.4 mmol ester hydrolyzed/min/mg protein | Specific activity, esterase E015 (esterase E015): 100 mmol ester hydrolyzed/min/mg protein | Specific activity, esterase E020 (esterase E020): 3.3 mmol ester hydrolyzed/min/mg protein | Specific activity, esterase E006 (esterase E006): 69 mmol ester hydrolyzed/min/mg protein

CC(C(=O)Oc1ccc([N+](=O)[O-])cc1)c1ccccc1 (racemic) [Substrate 1, (±)-4-nitrophenyl-2-phenylpropanoate, reference compound]
Specific activity, esterase E011 (esterase E011): 5.1 mmol ester hydrolyzed/min/mg protein | Specific activity, esterase E016 (esterase E016): 63 mmol ester hydrolyzed/min/mg protein | Specific activity, esterase E014 (esterase E014): 1.2 mmol ester hydrolyzed/min/mg protein | Specific activity, esterase E012 (esterase E012): 3.1 mmol ester hydrolyzed/min/mg protein | Specific activity, esterase E015 (esterase E015): 89 mmol ester hydrolyzed/min/mg protein | Specific activity, esterase E020 (esterase E020): 110 mmol ester hydrolyzed/min/mg protein | Specific activity, esterase E006 (esterase E006): 120 mmol ester hydrolyzed/min/mg protein

CC(C)Cc1ccc(C(C)C(=O)Oc2ccc([N+](=O)[O-])cc2)cc1 (racemic) [Substrate 2, (±)-4-nitrophenyl 2-(4-isobutylphenyl)propanoate, reference compound]
Specific activity, esterase E011 (esterase E011): 160 mmol ester hydrolyzed/min/mg protein | Specific activity, esterase E016 (esterase E016): 220 mmol ester hydrolyzed/min/mg protein | Specific activity, esterase E014 (esterase E014): 170 mmol ester hydrolyzed/min/mg protein | Specific activity, esterase E012 (esterase E012): 11 mmol ester hydrolyzed/min/mg protein | Specific activity, esterase E015 (esterase E015): 350 mmol ester hydrolyzed/min/mg protein | Specific activity, esterase E020 (esterase E020): 370 mmol ester hydrolyzed/min/mg protein | Specific activity, esterase E006 (esterase E006): 260 mmol ester hydrolyzed/min/mg protein

COC(=O)Cc1ccccc1 [Substrate 22]
Specific activity, esterase E011 (esterase E011): <0.1 mmol ester hydrolyzed/min/mg protein | Specific activity, esterase E016 (esterase E016): <2 mmol ester hydrolyzed/min/mg protein | Specific activity, esterase E014 (esterase E014): <0.1 mmol ester hydrolyzed/min/mg protein | Specific activity, esterase E012 (esterase E012): <2 mmol ester hydrolyzed/min/mg protein | Specific activity, esterase E015 (esterase E015): 0.14 mmol ester hydrolyzed/min/mg protein | Specific activity, esterase E020 (esterase E020): 0.28 mmol ester hydrolyzed/min/mg protein | Specific activity, esterase E006 (esterase E006): 0.16 mmol ester hydrolyzed/min/mg protein

COC(=O)CBr [Substrate 19]
Specific activity, esterase E011 (esterase E011): 1.6 mmol ester hydrolyzed/min/mg protein | Specific activity, esterase E016 (esterase E016): 7.6 mmol ester hydrolyzed/min/mg protein | Specific activity, esterase E014 (esterase E014): 0.73 mmol ester hydrolyzed/min/mg protein | Specific activity, esterase E012 (esterase E012): 2.4 mmol ester hydrolyzed/min/mg protein | Specific activity, esterase E015 (esterase E015): 2.6 mmol ester hydrolyzed/min/mg protein | Specific activity, esterase E020 (esterase E020): 1.6 mmol ester hydrolyzed/min/mg protein | Specific activity, esterase E006 (esterase E006): 1.9 mmol ester hydrolyzed/min/mg protein

CCOC(=O)CBr [Substrate 18]
Specific activity, esterase E011 (esterase E011): 5.5 mmol ester hydrolyzed/min/mg protein | Specific activity, esterase E016 (esterase E016): 16 mmol ester hydrolyzed/min/mg protein | Specific activity, esterase E014 (esterase E014): 37 mmol ester hydrolyzed/min/mg protein | Specific activity, esterase E012 (esterase E012): 5.9 mmol ester hydrolyzed/min/mg protein | Specific activity, esterase E015 (esterase E015): 100 mmol ester hydrolyzed/min/mg protein | Specific activity, esterase E020 (esterase E020): 3.1 mmol ester hydrolyzed/min/mg protein | Specific activity, esterase E006 (esterase E006): 4.8 mmol ester hydrolyzed/min/mg protein

CCCC(=O)OCC1COC(C)(C)O1 (racemic) [Substrate 8, (±)-Solketal Butyrate, reference compound]
Specific activity, esterase E011 (esterase E011): <0.1 mmol ester hydrolyzed/min/mg protein | Specific activity, esterase E016 (esterase E016): 2.2 mmol ester hydrolyzed/min/mg protein | Specific activity, esterase E014 (esterase E014): <0.1 mmol ester hydrolyzed/min/mg protein | Specific activity, esterase E012 (esterase E012): <2 mmol ester hydrolyzed/min/mg protein | Specific activity, esterase E015 (esterase E015): 0.16 mmol ester hydrolyzed/min/mg protein | Specific activity, esterase E020 (esterase E020): <0.2 mmol ester hydrolyzed/min/mg protein | Specific activity, esterase E006 (esterase E006): 0.13 mmol ester hydrolyzed/min/mg protein

COC(=O)c1ccc(CO)cc1 [Substrate 23]
Specific activity, esterase E011 (esterase E011): <0.1 mmol ester hydrolyzed/min/mg protein | Specific activity, esterase E016 (esterase E016): <2 mmol ester hydrolyzed/min/mg protein | Specific activity, esterase E014 (esterase E014): <0.1 mmol ester hydrolyzed/min/mg protein | Specific activity, esterase E012 (esterase E012): <2 mmol ester hydrolyzed/min/mg protein | Specific activity, esterase E015 (esterase E015): 0.13 mmol ester hydrolyzed/min/mg protein | Specific activity, esterase E020 (esterase E020): 0.47 mmol ester hydrolyzed/min/mg protein | Specific activity, esterase E006 (esterase E006): 0.27 mmol ester hydrolyzed/min/mg protein

CCCCCCCCCCCCCC(=O)Oc1ccc2nc3ccc(=O)cc-3oc2c1 [Substrate 6, Resorufin tetradecanoate, reference compound]
Specific activity, esterase E011 (esterase E011): 280 mmol ester hydrolyzed/min/mg protein | Specific activity, esterase E016 (esterase E016): 15 mmol ester hydrolyzed/min/mg protein | Specific activity, esterase E014 (esterase E014): 170 mmol ester hydrolyzed/min/mg protein | Specific activity, esterase E012 (esterase E012): 27 mmol ester hydrolyzed/min/mg protein | Specific activity, esterase E015 (esterase E015): 330 mmol ester hydrolyzed/min/mg protein | Specific activity, esterase E020 (esterase E020): 1200 mmol ester hydrolyzed/min/mg protein | Specific activity, esterase E006 (esterase E006): 0.55 mmol ester hydrolyzed/min/mg protein

CCCC(=O)OCC1CO1 (centres unmarked) [Substrate 30]
Specific activity, esterase E011 (esterase E011): 1.2 mmol ester hydrolyzed/min/mg protein | Specific activity, esterase E016 (esterase E016): 14 mmol ester hydrolyzed/min/mg protein | Specific activity, esterase E014 (esterase E014): 0.53 mmol ester hydrolyzed/min/mg protein | Specific activity, esterase E012 (esterase E012): 3.4 mmol ester hydrolyzed/min/mg protein | Specific activity, esterase E015 (esterase E015): 3.2 mmol ester hydrolyzed/min/mg protein | Specific activity, esterase E020 (esterase E020): 2.0 mmol ester hydrolyzed/min/mg protein | Specific activity, esterase E006 (esterase E006): 3.5 mmol ester hydrolyzed/min/mg protein
